Reference: the supplement of paper PMC10307832

Experiments:
Assay in all cases: relative viability (nuclei count vs DMSO), 5 days (fraction); higher = more cells survive
[1] = compound: C1COCCN1CC2=CC(=O)C(=CO2)OCCCCCSC3=C4C=CC(=CC4=NC=C3)C(F)(F)F [EHT 1864] + Cc1nc(NC(=O)N2CCC[C@H]2C(N)=O)sc1-c1ccnc(C(C)(C)C(F)(F)F)c1 [Alpelisib] (partner 2 µM)
How it was run: (§1)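 Relative viability is defined as nuclei in treated wells over nuclei in vehicle wells. Duplicate plates were run and medians reported. Lung cancer cell lines in 1536-well plates were dosed by pin tool one day after seeding, with one drug or with a fixed anchor-drug dose plus five library-drug doses (not always all listed) in √10 steps, and nuclei were counted after 5 days.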

[2] = compound: C1COCCN1CC2=CC(=O)C(=CO2)OCCCCCSC3=C4C=CC(=CC4=NC=C3)C(F)(F)F [EHT 1864] + Nc1nc2[nH]cc(CCc3ccc(C(=O)N[C@@H](CCC(=O)O)C(=O)O)cc3)c2c(=O)[nH]1 [Pemetrexed] (partner 0.2 µM)
How it was run: as §1

[3] = compound: C1COCCN1CC2=CC(=O)C(=CO2)OCCCCCSC3=C4C=CC(=CC4=NC=C3)C(F)(F)F [EHT 1864] + O=C(c1cc(Cc2n[nH]c(=O)c3ccccc23)ccc1F)N1CCN(C(=O)C2CC2)CC1 [Olaparib] (partner 8 µM)
How it was run: as §1

[4] = compound: C1COCCN1CC2=CC(=O)C(=CO2)OCCCCCSC3=C4C=CC(=CC4=NC=C3)C(F)(F)F [EHT 1864] + COc1cc2c(Oc3ccc(NC(=O)C4(C(=O)Nc5ccc(F)cc5)CC4)cc3F)ccnc2cc1OCCCN1CCOCC1 [Foretinib] (partner 0.25 µM)
How it was run: as §1

Cell Line	relative viability ([1]; first compound 0.04 µM)	relative viability ([1]; first compound 0.1265 µM)	relative viability ([1]; first compound 0.4 µM)	relative viability ([1]; first compound 1.265 µM)	relative viability ([1]; first compound 4 µM)	relative viability ([2]; first compound 0.04 µM)	relative viability ([2]; first compound 0.1265 µM)	relative viability ([2]; first compound 0.4 µM)	relative viability ([2]; first compound 1.265 µM)	relative viability ([2]; first compound 4 µM)	relative viability ([3]; first compound 0.04 µM)	relative viability ([3]; first compound 0.1265 µM)	relative viability ([3]; first compound 0.4 µM)	relative viability ([3]; first compound 1.265 µM)	relative viability ([3]; first compound 4 µM)	relative viability ([4]; first compound 0.04 µM)	relative viability ([4]; first compound 0.1265 µM)	relative viability ([4]; first compound 0.4 µM)	relative viability ([4]; first compound 1.265 µM)	relative viability ([4]; first compound 4 µM)
SK-MES-1	0.934	0.823	0.884	0.92	0.906	0.93	0.852	0.857	0.882	0.85	0.768	0.765	0.775	0.737	0.698	0.951	0.866	1.06	1.11	0.799
NCI-H1793	–	0.635	0.815	0.847	0.7	0.674	0.699	0.929	0.814	0.828	0.797	0.736	0.971	0.681	0.874	0.604	–	0.667	–	0.789
NCI-H1666	0.898	1.12	0.978	0.98	0.966	1.02	0.831	0.896	0.786	0.843	0.732	0.756	0.73	0.839	0.775	0.999	0.917	0.894	0.948	0.998
NCI-H1355	0.766	0.624	0.699	0.856	0.89	1.14	0.872	1.02	1.1	0.985	0.718	0.657	0.772	0.727	0.706	0.972	0.815	0.921	0.95	0.966
HCC-827	0.981	0.887	0.958	0.953	0.891	0.279	0.27	0.227	0.3	0.235	0.79	0.641	0.625	0.652	0.633	0.985	0.965	1.01	0.977	0.928
HARA	0.762	0.758	0.843	0.814	0.857	0.27	–	0.267	0.3	0.234	0.872	–	0.967	0.876	0.761	0.889	0.838	0.991	0.932	0.98
HCC-366	0.426	–	0.492	0.401	0.285	0.159	0.145	0.136	0.15	0.152	0.391	0.325	0.34	0.347	0.304	0.914	0.859	0.888	0.891	0.963
NCI-H322M	0.763	0.747	0.821	0.81	0.959	0.606	0.64	0.596	0.678	0.604	0.704	0.822	0.811	0.782	0.879	0.898	0.948	0.995	0.895	1.06
